The record followed here is patent US20130310387A1, “Monocyclic Heteroaryl Cycloalkyldiamine Derivatives” (NOVARTIS AG, priority 2012, published 2013).

Data set [1] concerns the target Syk (2-635) (KSYK_HUMAN, P43405) (Homo sapiens, UniProt P43405). Description: Syk enzyme assay (chip based microfluidic mobility shift assay). It is filed as biochemical. The following applies: 4 μM ATP, 4 nM Syk, 60 minutes at 30° C. How it is done:
A number of compounds of the present invention were assayed in a chip based microfluidic mobilitiy shift assay. All assays were performed in 384 well microtiter plates. Each assay plate contained 8-point serial dilutions for 40 test compounds, as well as four 8-point serial dilutions of staurosporine as reference compound, plus 16 high- and 16 low controls. Liquid handling and incubation steps were done on a Thermo CatX workstation equipped with a Innovadyne Nanodrop Express. Between pipetting steps, tips were cleaned in wash cycles using wash buffer. The assay plates were prepared by addition of 50 nl per well of compound solution in 90% DMSO. […] Kinase reactions were incubated at 30° C. for 60 minutes and subsequently terminated by addition of 16 μl per well of stop solution (100 mM HEPES pH 7.5, 5% DMSO, 0.1% Caliper coating reagent, 10 mM EDTA, and 0.015% Brij35). Plates with terminated kinase reactions were transferred to the Caliper LC3000 workstations for reading. Phosphorylated and unphosphorylated peptides were separated using the Caliper microfluidic mobility shift technology. Briefly, samples from terminated kinase reactions were applied to the chip. Analytes are transported through the chip by constant buffer flow and the migration of the substrate peptide is monitored by the fluorescence signal of its label. Phosphorylated peptide (product) and unphosphorylated peptide (substrate) are separated in an electric field by their charge/mass ratio. Kinase activities were calculated from the amounts of formed phospho-peptide. […] values were determined from percent inhibition values at different compound concentrations by non-linear regression analysis.
Test compounds were dissolved in DMSO (10 mM) and transferred into 1.4 mL flat bottom or V-shaped Matrix tubes carrying a unique 2D matrix. The stock solutions were stored at […] if not used immediately. For the test procedure the vials were defrosted and identified by a scanner whereby a working sheet was generated that guided the subsequent working steps.
Compound dilutions were made in 96 well plates. This format enabled the assay of maximally 40 individual test compounds at 8 concentrations (single points) including 4 reference compounds. The dilution protocol included the production of “pre-dilution plates”, “master plates” and “assay plates”.
96 polypropylene well plates were used as pre-dilution plates. A total of 4 pre-dilution plates were prepared including 10 test compounds each on the plate positions A1-A10, one standard compound at A11 and one DMSO control at A12. All dilution steps were done on a HamiltonSTAR robot.
30 μL of individual compound dilutions including standard compound and controls of the 4 “pre-dilution plates” were transferred into a 384 “master plate” including the following concentrations 1′810, 362, 72.5, […], 14.5, 2.9, 0.58 and 0.12 μM, respectively in 90% of DMSO.
Identical “assay plates” were then prepared by pipetting […] each of compound dilutions of the “master plates” into 384-well “assay plates” by means of a HummingBird 384-channel dispenser. These plates were used directly for the assay which was performed in a total volume of 9.05 μL. This led to a final compound concentration of 10, 2.0, 0.4, 0.08, 0.016, 0.0032, 0.00064 and 0.000128 μM and a final DMSO concentration of 0.5% in the assay.

Data set [2] deals with phosphorylation of BLNK in Ramos B cells. Description: Anti IgM-induced phosphorylation of BLNK in Ramos B cells. Particulars: Homo sapiens, 0.25 h, anti IgM 15 min, flow cytometry anti-BLNK (pY84). The class given is cell-based. The procedure:
Anti IgM-induced phosphorylation of BLNK (BLNK=B cell linker (SLP65=SH2 domain containing leukocyte protein of 65 kDa)) in Ramos B cells: Ramos B cells in a volume of 25 μl were incubated with 25 μl of the compound solution at 2-fold the desired final concentration for 30 min. at 37° C. Then 50 μL anti IgM was added, mixed and incubated for 15 min. at 37° C. In each experiment 8-fold serial dilutions of compounds were tested. The stimulation was stopped by addition of 100 μL/well of PFA (para formaldehyde) I PBS (phosphate buffered saline) (final conc. 2% PFA) for fixation and incubated for 15 min. at 37° C., then centrifuged at 1300 rpm for 3 min and permeabilized by resuspending the cell pellet in 100 μL methanol 90% and further incubated for 30 min at 4° C. The cells were then washed and phosphoproteins were detected by flow cytometry using fluorescently labeled anti-BLNK ([…]) (BD Biosciences).
In general terms: A flow cytometer gives signals particle by particle.

Data set [3] has as its system SLP-76 phosphorylation in human whole blood monocytes. Description: FcR stimulation-induced SLP-76 phosphorylation in human whole blood monocytes. It is filed as cell-based. The following applies: Monocyte, 5 min, anti CD32 stimulation 5 min, flow cytometry, read-out: Fc Recepor stimulation induced SLP-76 phosphorylation in human whole blood monocytes, IC50. An excerpt:
After lysis of erythrocytes and washings, the cell pellet was permeabilized with ice-cold methanol 90%. The permeabilized cells were washed and stained with anti CD14 (eBioscience) to detect monocytes and anti P-SLP76 ([…]) (BD Biosciences) and quantified by flow cytometry.

The target of a further data set is T1, hERG channel (Homo sapiens, UniProt Q12809).
T1 construct: host or cells: HEK293
Description: Inhibition of the hERG channel (manual patch clamp assay). The class given is cell-based. The following applies: HEK293 cells stably transfected with hERG cDNA, whole-cell patch clamp, tail current. From the text: The hERG patch clamp assay was done according to standard procedures used in Genetic Toxicology and Safety Pharmacology, based on recommendations and descriptions of methods in the literature, and according to current guidelines (ICH S7B, The non clinical evaluation of the potential for delayed ventricular repolarization (QT interval prolongation) by human pharmaceuticals, 2005). The purpose of the study is to assess the effect of the test item ABC123 on tail current recorded from HEK293 cells stably transfected with hERG cDNA. The HEK293 cells, which have been stably transfected with hERG cDNA, are a model considered to be suitable for this purpose (Zhou et al., 1998). Repolarisation of cardiac ventricular myocytes is mainly due to outward potassium currents. The most important current in humans is the delayed rectifier potassium current, IK, which has both rapidly and slowly activating components (IKr and IKs) (Sanguinetti and Jurkiewicz, 1990). The human ether-a-gogo-related-gene (hERG) encodes the major protein underlying IKr. Thus, inhibition of hERG potassium channels may lead to delayed cardiac repolarisation (Sanguinetti et al., 1995). Prolongation of cardiac repolarisation is a side effect that can be associated with some drug therapies. This proarrhythmic alteration is characterised by a prolongation of the QT interval in the surface electrocardiogram and is of particular concern because it may lead to the development of polymorphic ventricular arrhythmias like torsade de pointes (for review see: Vandenberg, Walker and Campbell, 2001). […] HERG HEK (HEK293 cells stably transfected with hERG cDNA) obtained from the University of Wisconsin were used. For the experiments the cells were plated onto sterile Thermanox plastic coverslips (Nalge Nunc International) in 6-well plates. The dishes were stored in a humidified, gassed incubator. The coverslips with cells were transferred to the recording chamber and continuously superfused (at approximately 1-2 ml/min) with vehicle. The temperature of the vehicle in the bath chamber was regulated by temperature controllers to 35° C.±2.0° C. hERG currents were measured in the whole-cell patch-clamp configuration. Once a stable patch clamp configuration was achieved, recording commenced in voltage-clamp mode, with the cell initially clamped at -75 mV. hERG current was observed and recorded if a stable hERG tail current response could be induced. […] The hERG HEK293 cells were treated approximately 9 min with the test item. The following voltage protocol was applied to induce hERG currents: The step from -75 mV to +10 mV activates an outward current (i.e. current flows out of the cell) and the step from +10 mV to -40 mV produces the tail current (the tail current represents the time taken for the current to turn off). […] The leak current was recorded and subtracted by a P/3n pulse between the voltage pulses (0.1 Hz).

Usually IC50 stands for the concentration that gives 50% inhibition. What is called inhibition is the percentage by which the read-out fell short of the control. Read a low inhibition as a weak effect.

T1 sequence (Q12809 whole entry): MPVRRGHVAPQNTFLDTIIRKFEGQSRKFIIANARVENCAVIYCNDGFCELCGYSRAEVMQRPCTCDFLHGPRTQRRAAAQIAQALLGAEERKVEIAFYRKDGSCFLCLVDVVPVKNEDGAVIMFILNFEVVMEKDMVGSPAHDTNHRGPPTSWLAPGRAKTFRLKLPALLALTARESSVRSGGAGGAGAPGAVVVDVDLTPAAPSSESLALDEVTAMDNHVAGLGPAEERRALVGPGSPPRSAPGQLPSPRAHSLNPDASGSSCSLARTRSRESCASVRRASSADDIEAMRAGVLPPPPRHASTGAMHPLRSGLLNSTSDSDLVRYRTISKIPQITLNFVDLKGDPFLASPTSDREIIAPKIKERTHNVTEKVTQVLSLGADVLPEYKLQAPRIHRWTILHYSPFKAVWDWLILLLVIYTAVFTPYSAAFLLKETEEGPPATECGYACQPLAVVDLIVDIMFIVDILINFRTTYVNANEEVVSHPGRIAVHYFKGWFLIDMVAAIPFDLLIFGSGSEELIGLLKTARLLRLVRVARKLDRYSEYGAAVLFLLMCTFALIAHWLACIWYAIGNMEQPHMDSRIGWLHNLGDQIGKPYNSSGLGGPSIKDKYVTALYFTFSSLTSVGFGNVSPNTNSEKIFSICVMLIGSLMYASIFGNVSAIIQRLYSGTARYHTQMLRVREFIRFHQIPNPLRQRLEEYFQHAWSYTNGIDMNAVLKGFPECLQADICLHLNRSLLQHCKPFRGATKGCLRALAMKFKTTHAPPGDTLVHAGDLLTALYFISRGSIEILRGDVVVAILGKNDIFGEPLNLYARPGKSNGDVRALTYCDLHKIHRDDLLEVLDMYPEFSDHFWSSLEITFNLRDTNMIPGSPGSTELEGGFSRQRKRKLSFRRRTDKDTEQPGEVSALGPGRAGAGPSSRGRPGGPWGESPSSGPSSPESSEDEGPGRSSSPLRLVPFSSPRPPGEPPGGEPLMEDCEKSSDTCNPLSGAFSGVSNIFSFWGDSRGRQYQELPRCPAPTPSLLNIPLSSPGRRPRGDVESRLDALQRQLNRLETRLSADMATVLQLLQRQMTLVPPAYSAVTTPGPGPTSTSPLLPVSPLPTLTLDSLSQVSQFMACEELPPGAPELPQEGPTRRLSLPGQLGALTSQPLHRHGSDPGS

As for `Cn1ccc2c(Nc3nc(N[C@@H]4CCCC[C@@H]4N)cnc3C(N)=O)cccc21` [Example 3.1, 5-((1R,2S)-2-Amino-cyclohexylamino)-3-(1-methyl-1H-indol-4-ylamino)-pyrazine-2-carboxylic acid amide], the results for the IC50 in data set [1] and in data set [2] were 0.5 nM and 25 nM, respectively.

With `Cc1c[nH]c2c(Nc3nc(N[C@@H]4CCCC[C@@H]4N)nnc3C(N)=O)cc(F)cc12` [Example 1.2, 3-((1R,2S)-2-Amino-cyclohexylamino)-5-(5-fluoro-3-methyl-1H-indol-7-ylamino)-[1,2,4]triazine-6-carboxylic acid amide], the IC50 amounted to 0.8 nM in data set [1], 63 nM in data set [2] and 491 nM in data set [3].

With `NC(=O)c1nnc(N[C@@H]2CCCC[C@@H]2N)nc1Nc1cc(F)cc2cc[nH]c12` [Example 2.6, 3-((1R,2S)-2-Amino-cyclohexylamino)-5-(5-fluoro-1H-indol-7-ylamino)-[1,2,4]triazine-6-carboxylic acid amide], the results for the IC50 in data set [1], in data set [2] and in data set [3] were 4.6 nM, 37 nM and 562 nM, respectively.

Regarding `NC(=O)c1nnc(N[C@@H]2CCCC[C@@H]2N)nc1Nc1cccc2[nH]ccc12` [Example 1.4, 3-((1R,2S)-2-Amino-cyclohexylamino)-5-(1H-indol-4-ylamino)-[1,2,4]triazine-6-carboxylic acid amide], the concentration for half-maximal inhibition (IC50) in data set [1] worked out at 1 nM; in data set [2], 14 nM; in data set [3], 177 nM.

`NC(=O)c1ncc(N[C@@H]2CCCC[C@@H]2N)nc1Nc1cccc2cc[nH]c12` [Example 4.1, 5-((1R,2S)-2-Amino-cyclohexylamino)-3-(1H-indol-7-ylamino)-pyrazine-2-carboxylic acid amide]: the IC50 amounted to 2.7 nM in data set [1], 28 nM in data set [2] and 311 nM in data set [3].

For `Cc1c[nH]c2c(Nc3nc(N[C@@H]4CCCC[C@@H]4N)cnc3C(N)=O)cccc12` [Example 4.2, 5-((1R,2S)-2-Amino-cyclohexylamino)-3-(3-methyl-1H-indol-7-ylamino)-pyrazine-2-carboxylic acid amide], the IC50 in data set [1] stood at 1 nM; in data set [2], 36 nM; in data set [3] it was 596 nM.

For `Cn1ncc2c(Nc3nc(N[C@@H]4CCCC[C@@H]4N)nnc3C(N)=O)cccc21` [Example 2.1, 3-((1R,2S)-2-Amino-cyclohexylamino)-5-(1-methyl-1H-indazol-4-ylamino)-[1,2,4]triazine-6-carboxylic acid amide], the concentration for half-maximal inhibition (IC50) in data set [1] is 12 nM; in data set [2] it was 121 nM; in data set [3] it was 509 nM.

On to `NC(=O)c1nnc(N[C@@H]2CCCC[C@@H]2N)nc1Nc1cccc2[nH]ncc12` [Example 2.5, 3-((1R,2S)-2-Amino-cyclohexylamino)-5-(1H-indazol-4-ylamino)-[1,2,4]triazine-6-carboxylic acid amide], for which the IC50 in data set [1] amounted to 30 nM; in data set [2], 106 nM; in data set [3], 671 nM.

As to `Cc1c[nH]c2c(Nc3nc(N[C@@H]4CCCC[C@@H]4N)nnc3C(N)=O)cccc12` [Example 1.3, 3-((1R,2S)-2-Amino-cyclohexylamino)-5-(3-methyl-1H-indol-7-ylamino)-[1,2,4]triazine-6-carboxylic acid amide], the IC50 in data set [1] was determined as 3.5 nM; in data set [2], 72 nM; in data set [3], 447 nM. On hERG channel (at 3 uM), the inhibition at 9 min, 3 µM is 24 ± 3%. This compound also returned an inhibition at 9 min, 10 µM at hERG channel (at 10 uM) of 37 ± 6%. The compound also returned an inhibition at 9 min, 30 µM against hERG channel (at 30 uM) of 74 ± 6%.

With `N#Cc1c[nH]c2c(Nc3nc(N[C@@H]4CCCC[C@@H]4N)nnc3C(N)=O)cccc12` [Example 2.4, 3-((1R,2S)-2-Amino-cyclohexylamino)-5-(3-cyano-1H-indol-7-ylamino)-[1,2,4]triazine-6-carboxylic acid amide], the IC50 in data set [1] is 86 nM; in data set [2] it was 890 nM.

With `Cn1cc2c(Nc3nc(N[C@@H]4CCCC[C@@H]4N)nnc3C(N)=O)cccc2n1` [Example 2.2, 3-((1R,2S)-2-Amino-cyclohexylamino)-5-(2-methyl-2H-indazol-4-ylamino)-[1,2,4]triazine-6-carboxylic acid amide], the IC50 came out at 58 nM in data set [2] and 394 nM in data set [3].

With `NC(=O)c1nnc(N[C@@H]2CCCC[C@@H]2N)nc1Nc1cccc2c(Cl)c[nH]c12` [Example 2.3, 3-((1R,2S)-2-Amino-cyclohexylamino)-5-(3-chloro-1H-indol-7-ylamino)-[1,2,4]triazine-6-carboxylic acid amide], the IC50 in data set [1] worked out at 11 nM; in data set [2], 393 nM.
